We go through 2 molecules from US12357574B2, “Particle coating method” (University of Limerick, priority 2020, dated 2025).

Each structure is given as a SMILES string.

This series in a line: Dissolution percentage as a function of time, UV spectrophotometry. The settings on record: API as received. It counts as physicochemical. The method, then: The dissolution percentage as a function of time was measured by respectively dissolving the as received CBZ and the coated MCC carrier particles in methanol (although other dissolution media could be used). UV spectrophotometry was used to measure the concentration of the CBZ dissolved in the methanol.

With `NC(=O)N1c2ccccc2C=Cc2ccccc21` [Carbamazepine, carbamazepine], the dissolution percentage result by setting is: (after approximately 50 minutes, methanol) “approximately 80%”; (within 10 minutes, methanol) “less than 40%”.

On to `Cc1nc2n(c(=O)c1CCN1CCC(c3noc4cc(F)ccc34)CC1)CCCC2` [Risperidone, risperidone], for which the dissolution percentage result (after approximately 60 minutes) is “less than 40%”.
